Five substances from US20250367302A1, “SMALL MOLECULE DRUG-OLIGONUCLEOTIDE CONJUGATE AND USE THEREOF” (SHANGHAI JIAO TONG UNIVERSITY, priority 2022, published 2025) can be followed below.

In the oligonucleotide strings, read from the 5' end, every base follows the letter of its sugar. An asterisk marks phosphorothioate; unmarked linkages are phosphodiester. Other units and linkages are bracketed, terminal groups are in braces. A string of capitals states the bases alone. d = 2'-deoxy (DNA); r = 2'-OH (RNA)

For the series, the system named is mice with xerophthalmia (0.2% benzalkonium chloride). Briefly: Benzalkonium chloride xerophthalmia mouse model: sodium fluorescein staining and phenol red cotton thread tear test. Type of series: in vivo, mouse (C57BL/6). As to conditions: for phenol red cotton thread infiltration length (tear secretion) after 14 d of treatment / sodium fluorescein staining eye score after 14 d of treatment: eye drops 5 μL per eye twice daily, 400 μM CsA (10RAP: 400 μM rapamycin), day 14; for phenol red cotton thread infiltration length (tear secretion), day 0 (before treatment) / sodium fluorescein staining eye score, day 0 (before treatment): xerophthalmia mice, baseline of the treatment group. The method, then:
The ocular xerophthalmia model was established in 6-8 weeks old mice (C57BL/6, Suzhou Xishan Biotechnology Co., Ltd.) with 0.2% benzalkonium chloride. 5 μL of 0.2% benzalkonium chloride was dripped into each eye of the mice, once in the morning and once in the evening every day, for two consecutive weeks. After successful modeling, the hospital-prepared CsA eye drops (400 µM CsA, referred to as hospital-prepared CsA eye drops or CsA eye drops, provided by the Eye, Ear, Nose and Throat Hospital Affiliated to Fudan University School of Medicine, Shanghai) and CsA-ASONFKBIZ-m (400 µM CsA) were used for eye drops treatment, 5 μL per eye, once in the morning and once in the evening. Sodium fluorescein staining and phenol red cotton thread tear secretion test were conducted on days 0, 7, and 14 of treatment to evaluate the therapeutic effect.
(§1) The ocular xerophthalmia model was established in 6-8 weeks old mice (C57BL/6, Suzhou Xishan Biotechnology Co., Ltd.) with 0.2% benzalkonium chloride. 5 μL of 0.2% benzalkonium chloride was dripped into each eye of the mice, once in the morning and once in the evening every day, for two consecutive weeks. After successful modeling, the hospital-prepared CsA eye drops (400 μM CsA, provided by the Eye, Ear, Nose and Throat Hospital Affiliated to Fudan University School of Medicine, Shanghai) and 2CsA-ASONFKBIZ-m (400 µM CsA) were used for eye drops treatment, 5 μL per eye, once in the morning and once in the evening. Sodium fluorescein staining and phenol red cotton thread tear secretion test were conducted on days 0, 7, and 14 of treatment to evaluate the therapeutic effect.
as §1, with “µM” for “μM”, “provided” for “provided by”, “3CsA-ASONFKBIZ-m nanomicelles (133 µM ASO concentration, 400” for “2CsA-ASONFKBIZ-m (400”
as §1, with “CsA3-ASONFKBIZ-m nanomicelles” for “2CsA-ASONFKBIZ-m”, “0” for “0, 7,”
The ocular xerophthalmia model was established in 6-8 weeks old mice (C57BL/6, Suzhou Xishan Biotechnology Co., Ltd.) using 0.2% benzalkonium chloride. 5 μL of 0.2% benzalkonium chloride was dripped into each eye of the mouse, once in the morning and once in the evening every day for two weeks. After successful modeling, the hospital-prepared CsA eye drops (400 µM CsA, provided by the Eye, Ear, Nose and Throat Hospital Affiliated to Fudan University School of Medicine, Shanghai) and CsA-siRNANFKBIZ-m (400 µM CsA), 2CsA-siRNANFKBIZ-m nanomicelles (400 µM CsA), 3CsA-siRNANFKBIZ-m nanomicelles (400 µM CsA) were used for eye drops treatment, 5 μL per eye, once in the morning and once in the evening. […]

In the case of “2CsA-siRNANFKBIZ-m: two CsA coupled to sense strand of siRNA targeting mouse NFKBIZ (SEQ ID NO: 17/18) (sense GCGUCAAUGUACCAGUAUUUUNUU; antisense AAUACUGGUACAUUGACGCCU; two CsA on sense strand; modified_base 22 OTHER; n is t base modified with DBCO moiety)”, the “phenol red cotton thread infiltration length (tear secretion) after 14 d of treatment” value was “about 2.5 mm”; the “sodium fluorescein staining eye score after 14 d of treatment” value was “about 2 points”; the “phenol red cotton thread infiltration length (tear secretion), day 0 (before treatment)” value is given as 1.5 mm; the “sodium fluorescein staining eye score, day 0 (before treatment)” value was 6 points.
On to “CsA-siRNANFKBIZ-m: one CsA coupled to sense strand of siRNA targeting mouse NFKBIZ (SEQ ID NO: 15/16) (sense rGrCrGrUrCrArArUrGrUrArCrCrArGrUrArUrUdTdT; antisense rArArUrArCrUrGrGrUrArCrArUrUrGrArCrGrCdCdT; cyclosporin A clicked onto the sense 3' DBCO group, further chemistry not fully specified)”, for which the “phenol red cotton thread infiltration length (tear secretion) after 14 d of treatment” value is “about 2.5 mm”; the “sodium fluorescein staining eye score after 14 d of treatment” value is reported as “about 3 points”; the “phenol red cotton thread infiltration length (tear secretion), day 0 (before treatment)” value came to 2 mm; the “sodium fluorescein staining eye score, day 0 (before treatment)” value stood at 6 points.
In the case of “CsA-ASONFKBIZ-m: single cyclosporin A (CsA-N3) click-coupled to 3′-DBCO ASO targeting mouse NFKBIZ gene (SEQ ID NO: 2) (AATACTGGTACATTGACGCC; 3'-DBCO ASO click-conjugated to one cyclosporin A, sugar and linkages not given here, further chemistry not given here)”, the “phenol red cotton thread infiltration length (tear secretion) after 14 d of treatment” value is on record as “about 3.2 mm”; the “sodium fluorescein staining eye score after 14 d of treatment” value was “about 3 points”; the “phenol red cotton thread infiltration length (tear secretion), day 0 (before treatment)” value came out at 1.8 mm; the “sodium fluorescein staining eye score, day 0 (before treatment)” value is reported as 5.5 points.
With “2CsA-ASONFKBIZ-m: two CsA molecules coupled to 2DBCO ASO targeting mouse NFKBIZ (SEQ ID 4), self-assembled (AATACTGGTACATTGACGCCNTT; two CsA via DBCO click; modified_base 21 OTHER; n is t base modified with DBCO moiety)”, the “phenol red cotton thread infiltration length (tear secretion) after 14 d of treatment” value is given as “about 3.5 mm”; the “sodium fluorescein staining eye score after 14 d of treatment” value was “about 3.5 points”; the “phenol red cotton thread infiltration length (tear secretion), day 0 (before treatment)” value amounted to 1.5 mm; the “sodium fluorescein staining eye score, day 0 (before treatment)” value was determined as 6 points.
With “3CsA-siRNANFKBIZ-m: three CsA coupled to sense strand of siRNA targeting mouse NFKBIZ (SEQ ID NO: 19/20) (sense GCGUCAAUGUACCAGUAUUUUNUNUU; antisense AAUACUGGUACAUUGACGCCU; three CsA on sense strand; modified_base 22 OTHER; n is t base modified with DBCO moiety; modified_base 24 OTHER)”, the “phenol red cotton thread infiltration length (tear secretion) after 14 d of treatment” value was “about 2.5 mm”; the “sodium fluorescein staining eye score after 14 d of treatment” value is on record as “about 2 points”; the “phenol red cotton thread infiltration length (tear secretion), day 0 (before treatment)” value came to 1.5 mm; the “sodium fluorescein staining eye score, day 0 (before treatment)” value is given as 6 points.
